This is an account of results in patent EP1210336B1, “SUBSTITUTED BENZIMIDAZOLES AS NON-NUCLEOSIDE INHIBITORS OF REVERSE TRANSCRIPTASE” (THE UNITED STATES OF AMERICA, as represented by the …, priority 1999, dated 2001).

Like-named read-outs stand apart in the source and are kept apart here.

In general, IC50 refers to the midpoint of a concentration-inhibition curve. By EC50 is commonly meant the concentration that produces a half-maximal response.

Data set [1] addresses T1, HIV-1 WT RT (Human immunodeficiency virus type 1 group M subtype B, UniProt P03366).
T1 construct: purified RT protein (0.015 mg/mL) was incubated in a 100 µL reaction mixture
In words: biochemical. As to conditions: for inhibition at 10 µM: read-out: %inhibn (10µM).

The next data set has as its system NL4-3 (WT). In words: Cytopathic cell killing assay, cross-resistance profile, infected MT-4 cells. Format: cell-based, HIV-1. The gist of the method:
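Cells seeded at 5 x 10^3 per well and infected with pre-titered HIV at MOI giving full killing by day 6 (e.g., 0.01-0.05). Compounds tested in triplicate serial half-log dilutions. Viability measured after six days at 37°C by XTT formazan at 450 nm; TI50 = fold-difference between EC50 and IC50.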
On the technique in general: Cytopathic effects are the visible damage that an infection or toxin causes in cultured cells.

Data set [2] concerns the target T1, HIV-1 WT RT. Conditions: reported by Pauwels et al. (TIBO) and Buckheit et al. (thiazolobenzimidazole); read-out: IC50 for rC:dG; cited from earlier work.
The next data set has as its system WT virus (NL4-3). The data set is described as follows: microbe, parasite or virus in culture. Conditions: for EC50: Human immunodeficiency virus 1, NL43, CEM-SS, read-out: EC50. The format is cell-based, HIV-1. The essentials:
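CEM-SS cells (5 x 10^3/well) infected with HIV-1 at an MOI giving complete killing by day 6 (e.g., 0.01-0.05), with serial half-log compound dilutions in triplicate. After 6 days at 37°C, viability read by XTT reduction at 450 nm. CIC50 derived from protection against cytopathic killing.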

Setting [3] is: Table 1, WT RT, 10 µM drug concentration.
Setting [4] is: Human immunodeficiency virus 1, NL43, MT4, Table 4, isolate NL4-3 (WT).
Where [5] appears, read: Human immunodeficiency virus 1, NL43, MT4, Table 8, isolate N1.43.
[6] abbreviates: Human immunodeficiency virus 1, NL43, MT4, Table 9, isolate NL4.3.

On to `Fc1cccc(F)c1C1SCc2nc3ccccc3n21` (centres unmarked) [TZB, 1-(2,6-difluorophenyl)-1H,3H-thiazolo[3,4-a]benzimidazole, reference compound], for which the 50% inhibitory concentration (IC50) on HIV-1 WT RT [1] and on HIV-1 WT RT [2] was 0.5 µM each time. The inhibition at 10 µM on HIV-1 WT RT [1] (setting [3]) was 84%. Moreover, the EC50 with NL4-3 (WT) (setting [4]) is 1.7 µM; in the data set with NL4-3 (WT) (setting [5]), 10 µM; in the data set with NL4-3 (WT) (setting [6]) it was 1 µM.
For `Cc1cccc2c1nc(-c1c(F)cccc1F)n2Cc1c(F)cccc1F` [compound 33, 1-(2,6-difluorobenzyl)-2-(2,6-difluorophenyl)-4-methylbenzimidazole], the IC50 on HIV-1 WT RT [1] (HIV-1 WT RT, read-out: IC50) was 0.2 µM; at HIV-1 WT RT [1] (Table 1, quantity of drug required to reduce WT RT enzyme activity by 50%, read-out: IC50) it was 0.2 µM; on HIV-1 WT RT [1] (Table 7, HIV-1 WT RT, read-out: IC50), 0.2 µM; at HIV-1 WT RT [1] (Table 11, WT RT, read-out: IC50) it was 0.2 µM; at HIV-1 WT RT [1] (WT RT, read-out: IC50), 0.2 µM. Further, the inhibition at 10 µM on HIV-1 WT RT [1] (setting [3]) came to 92%. For the same compound, the “%inhibn (10µM)” value at HIV-1 WT RT [1] (Table 2, WT RT, 10 µM drug concentration) was found to be 92%. Also, the inhibition at 1 µM on HIV-1 WT RT [1] (Table 7, WT HIV-1 RT, 1 µM drug, read-out: %inhibn (1µM)) was determined as 71%. In addition, the EC50 with NL4-3 (WT) (setting [4]) is 0.5 µM; with NL4-3 (WT) (setting [5]), 0.5 µM; in the data set on NL4-3 (WT) (setting [6]), 0.5 µM; in the data set on NL4-3 (WT) (Human immunodeficiency virus 1, NL43, MT4, Table 10 (values in µM), isolate NL4-3 (WT)), 0.5 µM; in the data set with WT virus (NL4-3) (Table 7, concentration reducing cell killing or virus production by 50%, HIV-1 WT), 0.44 µM; with WT virus (NL4-3) (Table 11, CEMSS/NL4-3, NRVC = reduction in viral CPE not seen (footnote)), 0.44 µM. Further, the “-fold better in the inhibition of the various viral isolates than the des-methyl analog 26” value in the data set on NL4-3 (WT) (various viral isolates of Table 4) was 3- to 4 fold. Also, the “cytotoxicity and anti-viral effect (summary graph)” value in the data set with WT virus (NL4-3) (Figures 10-12, result in words) is recorded as “very effective therapeutic dose”. Besides, the therapeutic index entry in the data set with WT virus (NL4-3) (difference between efficacy of the drug and cellular toxicity, Figure 10) is reported as “greater than one log in concentration”.
